Experimental data from patent US4293694A, “Pyrido[3,2,1-jk]carbazols” (Otsuka Pharmaceutical Co., Ltd., priority 1979, dated 1981).
≈ marks a conversion by molar mass, not a printed value. Read-outs that look alike come from different tables or passages of the source.

Legend:
[1] = tested on: Bacillus subtilis ATCC 6633; test: Antimicrobial activity, serial dilution method on agar plate; format: cell-based; conditions: ATCC6633, read-out: Minimum Inhibitory Concentration (MIC)
Bacillus anthracis = test: microbe, parasite or virus in culture; format: cell-based; conditions: read-out: Minimum Inhibitory Concentration (MIC)
[2] = tested on: Bacillus cereus ATCC 11778; test: Antimicrobial activity, serial dilution method on agar plate; format: cell-based; conditions: ATCC11778, read-out: Minimum Inhibitory Concentration (MIC)
[3] = tested on: Staphyrococcus aureus FDA 209p; test: as above; format: cell-based; conditions: read-out: Minimum Inhibitory Concentration (MIC)
[4] = tested on: Staphyrococcus aureus Newmann; test: as above; format: cell-based; conditions: read-out: Minimum Inhibitory Concentration (MIC)
[5] = tested on: Streptococcus faecalis IFO 12580; test: as above; format: cell-based; conditions: Enterococcus faecalis, IFO12580, read-out: Minimum Inhibitory Concentration (MIC)
Streptomyces viridans = test: as above; format: cell-based; conditions: read-out: Minimum Inhibitory Concentration (MIC)
Sarcina lutea ATCC 9341 = test: as above; format: cell-based; conditions: Micrococcus luteus, ATCC9341, read-out: Minimum Inhibitory Concentration (MIC)
[6] = tested on: Micrococcus flavus ATCC 10240a; test: as above; format: cell-based; conditions: ATCC10240A, read-out: Minimum Inhibitory Concentration (MIC)
[7] = tested on: Serratia marcescens ATCC 14756; test: as above; format: cell-based; conditions: ATCC14756, read-out: Minimum Inhibitory Concentration (MIC)
[8] = tested on: Salmonella typhimurium kh; test: as above; format: cell-based; conditions: Salmonella enterica, read-out: Minimum Inhibitory Concentration (MIC)
Enterbactor cloacae 2 = test: as above; format: cell-based; conditions: read-out: Minimum Inhibitory Concentration (MIC)
[9] = tested on: Enterbactor aerogenes IFO 12979; test: as above; format: cell-based; conditions: read-out: Minimum Inhibitory Concentration (MIC)
[10] = tested on: Klebsiella pneumoniae ST-101; test: as above; format: cell-based; conditions: ST101, read-out: Minimum Inhibitory Concentration (MIC)
Esherichia coli NIHJ = test: as above; format: cell-based; conditions: read-out: Minimum Inhibitory Concentration (MIC)
[11] = tested on: Esherichia coli NIHJ JC-2; test: as above; format: cell-based; conditions: read-out: Minimum Inhibitory Concentration (MIC)
Proteus mirabilis 1287 = test: as above; format: cell-based; conditions: read-out: Minimum Inhibitory Concentration (MIC)
[12] = tested on: Pseudomonas aeruginosa ATCC 10145; test: as above; format: cell-based; conditions: ATCC10145, read-out: Minimum Inhibitory Concentration (MIC)
Candida albicans KYU = test: as above; format: cell-based; conditions: read-out: Minimum Inhibitory Concentration (MIC)
Acute toxicity = conditions: rat, in vivo, rats, dd strain, 18 to 22 g, fasted 12 hours
Protocol: Further, the acute toxicity of the compounds of the present invention having the formula (I) was determined by intravenous administration (i.v.) and oral administration (p.o.) in 5 to 6 groups of rats (dd strain; body weight, 18 to 22 g; 10 rats in each group) which had been fasted for 12 hours prior to the test.

[13] = iv, read-out: LD50 (50% lethal dose), i.v.
[14] = po, read-out: LD50 (50% lethal dose), p.o.

| Compound | MIC [1] [µg/mL] | MIC (Bacillus anthracis) [µg/mL] | MIC [2] [µg/mL] | MIC [3] [µg/mL] | MIC [4] [µg/mL] | MIC [5] [µg/mL] | MIC (Streptomyces viridans) [µg/mL] | MIC (Sarcina lutea ATCC 9341) [µg/mL] | MIC [6] [µg/mL] | MIC [7] [µg/mL] | MIC [8] [µg/mL] | MIC (Enterbactor cloacae 2) [µg/mL] | MIC [9] [µg/mL] | MIC [10] [µg/mL] | MIC (Esherichia coli NIHJ) [µg/mL] | MIC [11] [µg/mL] | MIC (Proteus mirabilis 1287) [µg/mL] | MIC [12] [µg/mL] | MIC (Candida albicans KYU) [µg/mL] | LD50 (Acute toxicity; [13]) [mg/kg] | also measured |
| --- | --- | --- | --- | --- | --- | --- | --- | --- | --- | --- | --- | --- | --- | --- | --- | --- | --- | --- | --- | --- | --- |
| O=C(O)c1cn2c3c(ccc([N+](=O)[O-])c3c1=O)C1CCCCC12 (stereo not shown) [Compound 6, 3-nitro-7a,8,9,10,11,11a-hexahydro-4-oxo-4H-pyrido[3,2,1-jk]carbazol-5-carboxylic acid] | 3.2 (≈ 10.2 µM) | 12.5 (≈ 39.8 µM) | 12.5 (≈ 39.8 µM) | 12.5 (≈ 39.8 µM) | 12.5 (≈ 39.8 µM) | > 100 | > 100 | 50 (≈ 159 µM) | 50 (≈ 159 µM) | 6.3 (≈ 20 µM) | 12.5 (≈ 39.8 µM) | 6.3 (≈ 20 µM) | 6.3 (≈ 20 µM) | 6.3 (≈ 20 µM) | 6.3 (≈ 20 µM) | 12.5 (≈ 39.8 µM) | 12.5 (≈ 39.8 µM) | > 100 | > 500 | 110 | LD50 (Acute toxicity; [14]): 4000 mg/kg |
| Nc1ccc2c3c1c(=O)c(C(=O)O)cn3C1CCCCC21 (stereo not shown) [Compound 7, 3-amino-7a,8,9,10,11,11a-hexahydro-4-oxo-4H-pyrido[3,2,1-jk]carbazol-5-carboxylic acid] | 6.3 (≈ 22.2 µM) | 12.5 (≈ 44 µM) | 50 (≈ 176 µM) | 50 (≈ 176 µM) | 50 (≈ 176 µM) | > 100 | > 100 | > 100 | > 100 | 12.5 (≈ 44 µM) | 12.5 (≈ 44 µM) | 12.5 (≈ 44 µM) | 12.5 (≈ 44 µM) | 12.5 (≈ 44 µM) | 25 (≈ 87.9 µM) | 50 (≈ 176 µM) | 50 (≈ 176 µM) | > 100 | > 500 | 115 | LD50 (Acute toxicity; [14]): 4500 mg/kg |
| CC(=O)Nc1ccc2c3c1c(=O)c(C(=O)O)cn3C1CCCCC21 (stereo not shown) [Compound 8, 3-acetylamino-7a,8,9,10,11,11a-hexahydro-4-oxo-4H-pyrido[3,2,1-jk]carbazol-5-carboxylic acid] | 3.2 (≈ 9.81 µM) | 6.3 (≈ 19.3 µM) | 50 (≈ 153 µM) | 12.5 (≈ 38.3 µM) | 12.5 (≈ 38.3 µM) | 100 (≈ 306 µM) | 100 (≈ 306 µM) | 50 (≈ 153 µM) | 50 (≈ 153 µM) | 3.2 (≈ 9.81 µM) | 6.3 (≈ 19.3 µM) | 6.3 (≈ 19.3 µM) | 6.3 (≈ 19.3 µM) | 6.3 (≈ 19.3 µM) | 12.5 (≈ 38.3 µM) | 12.5 (≈ 38.3 µM) | 25 (≈ 76.6 µM) | > 100 | > 500 | 110 | LD50 (Acute toxicity; [14]): 3500 mg/kg |
| O=C(OCCBr)c1cn2c3c(cc(F)cc3c1=O)C1CCCCC12 (stereo not drawn) [Compound 9, β-bromoethyl 2-fluoro-7a,8,9,10,11,11a-hexahydro-4-oxo-4H-pyrido[3,2,1-jk]carbazol-5-carboxylate] | 12.5 (≈ 31.7 µM) | 50 (≈ 127 µM) | 100 (≈ 254 µM) | 50 (≈ 127 µM) | 50 (≈ 127 µM) | > 100 | > 100 | 100 (≈ 254 µM) | 100 (≈ 254 µM) | 12.5 (≈ 31.7 µM) | 25 (≈ 63.4 µM) | 12.5 (≈ 31.7 µM) | 25 (≈ 63.4 µM) | 25 (≈ 63.4 µM) | 25 (≈ 63.4 µM) | 25 (≈ 63.4 µM) | 50 (≈ 127 µM) | > 100 | > 500 | 105 | LD50 (Acute toxicity; [14]): 3000 mg/kg |
| NNC(=O)c1cn2c3c(cc(F)cc3c1=O)C1CCCCC12 (stereo not shown) [Compound 10, 2-Fluoro-7a,8,9,10,11,11a-hexahydro-4-oxo-4H-pyrido[3,2,1-jk]carbazol-5-carbohydrazide] | 25 (≈ 83 µM) | 100 (≈ 332 µM) | 100 (≈ 332 µM) | 50 (≈ 166 µM) | 50 (≈ 166 µM) | > 100 | > 100 | > 100 | > 100 | 25 (≈ 83 µM) | 25 (≈ 83 µM) | 12.5 (≈ 41.5 µM) | 12.5 (≈ 41.5 µM) | 12.5 (≈ 41.5 µM) | 25 (≈ 83 µM) | 25 (≈ 83 µM) | 50 (≈ 166 µM) | > 100 | > 500 | 100 | LD50 (Acute toxicity; [14]): 3500 mg/kg |
| CCn1cc(C(=O)O)c(=O)c2ccc(C)nc21 [Compound 13, 1-ethyl-1,4-dihydro-7-methyl-4-one-1,8-naphthyridine-3-carboxylic acid, reference compound] | 6.3 (≈ 27.1 µM) | 12.5 (≈ 53.8 µM) | 50 (≈ 215 µM) | 50 (≈ 215 µM) | 50 (≈ 215 µM) | > 100 | > 100 | > 100 | > 100 | 3.2 (≈ 13.8 µM) | 6.3 (≈ 27.1 µM) | 12.5 (≈ 53.8 µM) | 6.3 (≈ 27.1 µM) | 12.5 (≈ 53.8 µM) | 12.5 (≈ 53.8 µM) | 6.3 (≈ 27.1 µM) | 25 (≈ 108 µM) | > 100 | > 500 |  |  |
